Reference: the NIST ThermoML archive (doi:10.1021/je3009123)

Tests used:
[1] = mn = molality of the nth substance listed, in mol/kg; conditions: 100 kPa, Liquid; for speed of sound: Linear variable-path acoustic interferometer; for mass density: Pycnometric method
[2] = refractive index (Na D-line) (dimensionless); mn = molality of the nth substance listed, in mol/kg; conditions: 100 kPa, Liquid, Standard Abbe refractometry

[Cl][Co][Cl] [cobalt chloride] + O
m1 = 0.1
Conditions | mass density, [1] [kg/m3] | refractive index, [2] | speed of sound, [1] [m/s]
293.15 K | 1014 | 1.3373 | 1502.5
298.15 K | 1013 | 1.3368 | 1512
303.15 K | 1011.84 | 1.3361 | 1524
308.15 K | 1010.16 | 1.3356 | 1533.9
313.15 K | 1007.89 | 1.335 | 1541.7

CC1NC(=O)C(C)NC1=O (stereo not given) [3,6-dimethyl-2,5-piperazinedione] + O
m1 = 0.05
Conditions | mass density, [1] [kg/m3] | refractive index, [2] | speed of sound, [1] [m/s]
293.15 K | 999.9 | 1.3351 | 1499.7
298.15 K | 998.82 | 1.3344 | 1509.5
303.15 K | 997.48 | 1.3337 | 1521.1
308.15 K | 996.18 | 1.3331 | 1527.9
313.15 K | 994.84 | 1.3324 | 1535.9
